Results as given in ChEMBL document CHEMBL1201862, “PubChem BioAssay data set” (2004).
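Test compounds were applied to cells in 96-well plates for 48 hours at 5 doses. At the GI50, growth is halved.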 Active and inactive are the calls of the source. Cut-off read from the data, not from the text of the source: active = GI50 up to about 1.1 µM and inactive = higher.

Legend:
Experiment in all cases: NCI-60 cell line screen, 48 h
786-0 = tested on: 786-0
HCT-116 = tested on: HCT-116
HL-60 = tested on: HL-60
K562 = tested on: K562
M14 = tested on: M14
MOLT-4 = tested on: MOLT-4
Malme-3M = tested on: Malme-3M
OVCAR-3 = tested on: OVCAR-3
OVCAR-4 = tested on: OVCAR-4
SK-MEL-2 = tested on: SK-MEL-2
U-251 = tested on: U-251
UO-31 = tested on: UO-31
EKVX = tested on: EKVX
HOP-92 = tested on: HOP-92
RPMI-8226 = tested on: RPMI-8226

Measured: GI50

O=C(NN1C(=O)C(Cl)C1c1cccc(Cl)c1)c1ccccc1O (configuration not stated)
inactive: 786-0 > 100 µM | HCT-116 > 100 µM | HL-60 > 100 µM | K562 > 100 µM | M14 > 100 µM | MOLT-4 > 100 µM | Malme-3M > 100 µM | OVCAR-3 > 100 µM | OVCAR-4 > 100 µM | SK-MEL-2 > 100 µM | U-251 > 100 µM | UO-31 > 100 µM

C=C(C)C1CC=C(C)CC1 (configuration not stated)
inactive: 786-0 923 µM | EKVX 1030 µM | HCT-116 923 µM | HL-60 817 µM | HOP-92 841 µM | K562 813 µM | M14 893 µM | MOLT-4 1140 µM | Malme-3M 885 µM | OVCAR-3 891 µM | OVCAR-4 964 µM | RPMI-8226 > 100 µM | SK-MEL-2 798 µM | U-251 787 µM | UO-31 925 µM

O=C(CC(=O)c1ccccc1)C(=O)NC12CC3CC(CC(C3)C1)C2
inactive: 786-0 > 56.2 µM | EKVX > 100 µM | HCT-116 > 64.1 µM | HL-60 > 48.5 µM | HOP-92 > 100 µM | K562 > 56.9 µM | M14 > 100 µM | MOLT-4 > 100 µM | Malme-3M > 100 µM | OVCAR-3 > 100 µM | OVCAR-4 > 100 µM | RPMI-8226 > 45.3 µM | SK-MEL-2 > 100 µM | U-251 > 88.9 µM | UO-31 > 100 µM

CC(=O)/C(=C\c1ccccc1)C(=O)Nc1ccccc1
inactive: 786-0 > 100 µM | EKVX > 100 µM | HCT-116 > 100 µM | HL-60 > 100 µM | HOP-92 > 100 µM | K562 > 100 µM | M14 > 100 µM | MOLT-4 > 100 µM | Malme-3M > 100 µM | OVCAR-3 > 100 µM | OVCAR-4 > 100 µM | RPMI-8226 > 100 µM | SK-MEL-2 > 100 µM | U-251 > 100 µM | UO-31 > 100 µM

Cc1cccc(N2C(=O)C(Cl)=C(Cl)C2=O)c1
inactive: 786-0 > 54.1 µM | EKVX > 74 µM | HCT-116 38.6 µM | HL-60 > 100 µM | HOP-92 > 53.8 µM | K562 35.3 µM | M14 > 55.8 µM | MOLT-4 33.9 µM | Malme-3M > 42.1 µM | OVCAR-3 > 50.6 µM | OVCAR-4 > 46.3 µM | RPMI-8226 > 47.1 µM | SK-MEL-2 > 100 µM | U-251 > 100 µM | UO-31 > 100 µM

COc1ccc2c(c1)[n+]([O-])c(-c1ccc(Cl)c(Cl)c1)c(N)[n+]2[O-]
inactive: 786-0 36.7 µM | EKVX 33.6 µM | HCT-116 42.9 µM | HL-60 23.7 µM | HOP-92 > 100 µM | K562 40.7 µM | M14 25.7 µM | MOLT-4 37.5 µM | Malme-3M 23.6 µM | OVCAR-3 26.1 µM | OVCAR-4 28.7 µM | RPMI-8226 31.3 µM | SK-MEL-2 19.9 µM | U-251 35.1 µM | UO-31 39.7 µM

N=C(N)NS(=O)(=O)c1ccc(NC(=O)c2cccc3c(N)c4ccccc4nc23)cc1
inactive: 786-0 > 100 µM | EKVX > 100 µM | HCT-116 > 100 µM | K562 > 100 µM | M14 > 100 µM | MOLT-4 42 µM | Malme-3M > 100 µM | OVCAR-3 84.9 µM | OVCAR-4 > 100 µM | RPMI-8226 > 100 µM | SK-MEL-2 > 100 µM | U-251 99.8 µM | UO-31 55.8 µM

COc1cc2cnc3c4cc(O)ccc4ccc3c2cc1OC
inactive: 786-0 61.8 µM | EKVX > 100 µM | HCT-116 > 100 µM | HL-60 33.2 µM | HOP-92 > 100 µM | K562 19.7 µM | M14 > 100 µM | MOLT-4 31.1 µM | Malme-3M 51.1 µM | OVCAR-3 17.6 µM | OVCAR-4 26.7 µM | RPMI-8226 > 100 µM | SK-MEL-2 26.4 µM | U-251 10.8 µM | UO-31 > 100 µM

CCCCCCCCCCCCCS(=O)(=O)NCC(N)=O
inactive: 786-0 > 100 µM | EKVX > 100 µM | HCT-116 > 100 µM | HL-60 > 100 µM | HOP-92 > 100 µM | M14 > 100 µM | Malme-3M > 100 µM | OVCAR-3 > 100 µM | OVCAR-4 > 100 µM | SK-MEL-2 > 100 µM | U-251 > 100 µM | UO-31 > 100 µM

COC(=N)/C(=C1\OC(=N)C(c2ccc(Cl)cc2)=C1O)c1ccc(Cl)cc1
inactive: 786-0 > 100 µM | EKVX > 100 µM | HCT-116 > 100 µM | HL-60 81.7 µM | HOP-92 > 100 µM | K562 > 100 µM | M14 > 100 µM | MOLT-4 > 100 µM | Malme-3M > 100 µM | OVCAR-3 > 100 µM | OVCAR-4 > 100 µM | RPMI-8226 81.8 µM | SK-MEL-2 > 100 µM | U-251 > 100 µM | UO-31 > 100 µM
